According to patent US10066004B2 (ARIZONA CANCER THERAPEUTICS, LLC, priority 2010, dated 2018):
No end group written: not given here.

Tests used:
[1] = system: MDA-MB-468 cells; test: MTT viability, EJ1 in combination with pathway inhibitors or ROS scavenger; type: cell-based; details: MDA-MB-468, 20 μmol/l EJ1 plus inhibitor
Procedure: (a) MDA-MB-468 cells were treated with either 20 μmol/l CP (A-D) or 20 μmol/l EJ1 (E-H) for 0 minutes (A, E), 15 minutes (B, F), 60 minutes (C, G), or 16 hours (D, H). Arrows indicate membrane blebs and arrowheads indicate intracellular vacuoles. (b) BxPC3 cells were serum starved overnight, then treated with 20 μmol/l EJ1 and 50 ng/ml Texas-Red-labeled EGF, and imaged for 30 minutes with an Olympus IX71 deconvolution microscope. Panels A-F are bright field images, D′-F′ are red channel images (Texas-Red-labeled EGF). Arrowheads indicate locations of EGF accumulation on membrane protrusions. (c) Diagram depicts Ca^2+/CaM-regulated signaling pathway, and inhibitors acting at different targets are indicated. (d) MDA-MB-468 cells were pretreated with 50 μmol/l W-13 (D-F), 10 μmol/l ML-7 (G-I), or 10 μmol/l Y-27632 (J-L) in complete medium at 37° C. for 30 minutes and then treated with vehicle, 20 μmol/l CP, or 20 μmol/l EJ1 in combination with W-13, ML-7, or Y-27632 in complete medium at 37° C. for 15 minutes. Images represent the bright field images. Arrows indicate membrane blebbing. (e) MDA-MB-468 cells were untreated (UNTX) or treated with water (Vehicle), 20 μmol/l EJ1, 10 μmol/l Y-27632, or 10 μmol/l ML-7 alone or EJ1 in combination with Y-27632 or ML-7, and the viability was assessed by the MTT assay. **P<0.01 (Student's t-test). Error bars, mean±SD. (f) MDA-MB-468 cells were either in serum-free medium (SF) or stimulated with 100 ng/ml EGF (EGF) and then incubated with water (Vehicle), 20 μmol/l CP, 20 μmol/l EJ1, 2 μmol/l ionomycin, 50 μmol/l W-13, 100 μmol/l KN-93, or EJ1 in combination with ionomycin for 15 minutes. Lysates were immunoblotted with antibodies as indicated. (g) Stable, neomycin-selected NIH3T3 cell lines were created, expressing either Rac1 wild-type (Rac1-WT) or Rac1 constitutively active mutant (Rac1-Q61L). Cells were treated with water (Vehicle), 20 μmol/l CP, or 20 μmol/l EJ1, and the viability was assessed by MTT. ***P<0.001 (Student's t-test). Error bars, mean±SD.
(a) MDA-MB-468 cells were incubated in serum-free media with 200 nmol/l MitoTracker Red CMXRos and 5 μg/ml Hoechst 33342 nuclear stain, followed by either 20 μmol/l CP (A-B′) or 20 μmol/l EJ1 (C-D′), and imaged at 0 minutes (A, A′; and C, C′) or at 5 minutes (B, B′; and D, D′). (b) MDA-MB-468 cells were incubated with 1 μmol/l JC-1, followed by 20 μmol/l CP, 20 μmol/l EJ1, or 50 μmol/l CCCP. Results were calculated as the ratio of the 514/590 nm to 514/529 nm fluorescences and the ratio for CP-treated sample was set as 1. *P<0.05, Student's t-test. Error bars, mean±SD. […] Cells were then sorted by flow cytometer and analyzed by Cellquest Pro 4.0 software. The results are expressed as the percentage of DCFH fluorescence-positive cells. *P<0.05, Student's t-test. […]

[2] = system: MDA-MB-468 cells; test: Membrane blebbing / cell morphology, bright field imaging; type: cell-based; details: for inhibition of EJ1-induced membrane blebbing: 50 μmol/l W-13, 10 μmol/l ML-7, 10 μmol/l Y-27632 with 20 μmol/l EJ1
Procedure: (a) MDA-MB-468 cells were treated with either 20 μmol/l CP (A-D) or 20 μmol/l EJ1 (E-H) for 0 minutes (A, E), 15 minutes (B, F), 60 minutes (C, G), or 16 hours (D, H). […] (b) BxPC3 cells were serum starved overnight, then treated with 20 μmol/l EJ1 and 50 ng/ml Texas-Red-labeled EGF, and imaged for 30 minutes with an Olympus IX71 deconvolution microscope. Panels A-F are bright field images, D′-F′ are red channel images (Texas-Red-labeled EGF). […] (c) Diagram depicts Ca^2+/CaM-regulated signaling pathway, and inhibitors acting at different targets are indicated. (d) MDA-MB-468 cells were pretreated with 50 μmol/l W-13 (D-F), 10 μmol/l ML-7 (G-I), or 10 μmol/l Y-27632 (J-L) in complete medium at 37° C. for 30 minutes and then treated with vehicle, 20 μmol/l CP, or 20 μmol/l EJ1 in combination with W-13, ML-7, or Y-27632 in complete medium at 37° C. for 15 minutes. Images represent the bright field images. […] Error bars, mean±SD. (f) MDA-MB-468 cells were either in serum-free medium (SF) or stimulated with 100 ng/ml EGF (EGF) and then incubated with water (Vehicle), 20 μmol/l CP, 20 μmol/l EJ1, 2 μmol/l ionomycin, 50 μmol/l W-13, 100 μmol/l KN-93, or EJ1 in combination with ionomycin for 15 minutes. Lysates were immunoblotted with antibodies as indicated. […] Error bars, mean±SD. (From Hart et al., 2013, Molecular Therapy 21(11):1996-2007, the disclosure of which is incorporated herein in its entirety.)
Ca^2+/CaM signaling regulates many different cellular events, such as membrane dynamics, cell survival, mitochondrial function, and motility. We began by evaluating whether EJ1 was affecting membrane dynamics by treating MDA-MB-468 cells with either CP (FIG. 8) or EJ1 (FIG. 8) and examining cell morphology. […] Ca^2+/CaM signaling regulates many different downstream pathways, such as CaMKII and MLCK. CaMKII regulates cell proliferation, whereas MLCK phosphorylates myosin light chain (MLC) and regulates actinomyosin reorganization during membrane blebbing (as depicted in FIG. 8). To investigate whether EJ1-induced membrane blebbing was through the MLCK pathway, MDA-MB-468 cells were treated with vehicle, CP, or EJ1 alone (A-C) or in combination with the CaM inhibitor W-13 or the MLC phosphorylation inhibitors ML-7 and Y-27632 (D-L).

[3] = system: MDA-MB-468 cells; details: for inhibitor effect on cell survival after three days of treatment: MDA-MB-468, 20 uM peptide (FIG. 1); for effect on cell viability (MTT): MDA-MB-468, 3 days of treatment (FIG. 6)
Procedure: Inhibitor peptides were evaluated on their ability to inhibit growth of triple-negative breast cancer cells MDA-MB-468 (20 uM peptide treatment). […] SEQ ID NO: 13 is […] SEQ ID NO: 14 is […] SEQ ID NO: 15 is […] SEQ ID NO: 16 is […] SEQ ID NO: 17 is […] SEQ ID NO: 18 is […] SEQ ID NO: 19 is […] SEQ ID NO: 20 is […] SEQ ID NO: 21 is […] SEQ ID NO: 22 is […] SEQ ID NO: 23 is […] SEQ ID NO: 24 is […] SEQ ID NO: 25 is […]
Peptide designations are indicated in the right column. Changes from EJ1 in EJ2-11 are denoted in the second column from the right. (d-j) Cell lines were treated daily with 20 μmol/l EJ1, 20 μmol/l CP, or vehicle (water) for 3 days unless otherwise noted, and cell viability was determined by the MTT assay. Growth rates for vehicle-treated cells were set to 100%, and CP and EJ1 rates were adjusted accordingly. *P<0.05, **P<0.01, ***P<0.001 (Student's t-test). Error bars, mean±SD. (From Hart et al., 2013, Molecular Therapy 21(11):1996-2007, the disclosure of which is incorporated herein in its entirety.)
To do this, we created cell-penetrating peptides to act as dominant-negative “decoys,” thereby inhibiting endogenous jxm interactions. Peptides specific for jxm subdomains were synthesized downstream of the protein transduction domain-4 (PTD4; FIG. 6). Next, the effect of peptide treatment on cell viability was analyzed on the breast cancer cell line MDA-MB-468 by MTT (3-[4,5-dimethylthiazol-2-yl]-2,5-diphenyl tetra-zolium bromide) analysis after 3 days of treatment.
Protein lysate preparation, immunoprecipitation, and western blotting were performed as described previously. For cross-linking, cells were first incubated according to manufacturer instructions with 3 μmol/l DMS, a membrane-permeable, noncleavable, cross-linking agent (Thermo Scientific, Waltham, Mass.). Cells were analyzed both by the MTT assay following manufacturer's instructions (Sigma) and using a U-Quant Spectrophotometer (Bio-TEK Instruments, Winooski, Vt.).

[4] = system: patient-derived glioma lines (BT145, BT147, GB16, GB7, GB42); test: Viability of patient-derived GBM cells; type: cell-based
From the text: FIG. 13A and FIG. 13B show treatment of patient-derived GBM cells with various EGFR inhibitor peptides.
EGFR is amplified or mutated in more than 40% of glioblastoma multiforme (GBM) tumors. Referring to FIG. 13-14, inhibitor peptides of the present invention were used to treat GBM cells and tumors.

## Cn1cnc(=N)c2[nH]cnc21 [3-MA]
[1]
  effect of co-treatment on EJ1-induced loss of cell viability (MTT): not able to rescue

## COc1cc2ncnc(Nc3cccc(Cl)c3)c2cc1OC [AG1478]
[2]; EJ1 20 μmol/l, 15 minutes
  membrane blebbing: No membrane blebbing was observed

## O=S(=O)(c1cccc2c(I)cccc12)N1CCCNCC1 [ML-7]
[2]
  inhibition of EJ1-induced membrane blebbing: completely inhibited
[1]
  effect of co-treatment on EJ1-induced loss of cell viability (MTT): significantly reduce the effects of EJ1

## NCCCCNS(=O)(=O)c1ccc2c(Cl)cccc2c1 [W-13]
[2]
  inhibition of EJ1-induced membrane blebbing: completely inhibited

## C[C@@H](N)[C@H]1CC[C@H](C(=O)Nc2ccncc2)CC1 [Y-27632]
[2]
  inhibition of EJ1-induced membrane blebbing: completely inhibited
[1]
  effect of co-treatment on EJ1-induced loss of cell viability (MTT): significantly reduce the effects of EJ1

## YARAAARQARAFMRDRHIVRDRTLRDLLQERE (Artificial peptide sequence related to EGFR juxtamembrane sequence) [EJ10]
[3]
  inhibitor effect on cell survival after three days of treatment: almost no inhibitor effect
  effect on cell viability (MTT): completely ablated the effects on viability

## YARAAARQARAFMRQRHIVRQRTLRQLLQERE [EJ11]
[3]
  effect on cell viability (MTT): only marginally blocked the antiproliferative effects of EJ1

## YARAAARQARAFMRRRHIVRKRTL (Artificial peptide sequence related to EGFR juxtamembrane sequence) [EJ2]
[3]
  effect on cell viability (MTT): partial reduction

## YARAAARQARAIVRKRTLRRLLQERE (Artificial peptide sequence related to EGFR juxtamembrane sequence) [EJ3]
[3]
  effect on cell viability (MTT): partial reduction

## YARAAARQARALLQERELVEPLT (Artificial peptide sequence related to EGFR juxtamembrane sequence) [EJ6]
[3]
  effect on cell viability (MTT): No antiproliferative effect

## YARAAARQARARDRHIVRDRTLRD (Artificial peptide sequence related to EGFR juxtamembrane sequence) [nlsCPv4]
[3]
  inhibitor effect on cell survival after three days of treatment: almost no inhibitor effect

## YARAAARQARARRRHIVRKRTLRR (Artificial peptide sequence related to EGFR juxtamembrane sequence) [EJ4]
[3]
  effect on cell viability (MTT): No antiproliferative effect

## YARAAARQARARTLRRLLQERE (Artificial peptide sequence related to EGFR juxtamembrane sequence) [EJ5]
[3]
  effect on cell viability (MTT): partial reduction

## control peptide: control peptide compared to stapled EJ1 on patient-derived glioma lines (YARAAARQARAFMRDRHIVRDRTLRDLLQERE; Artificial peptide sequence related to EGFR juxtamembrane sequence) [reference compound]
[4]; BT145 and BT147 (FIG. 13A)
  cell viability of patient-derived glioma lines: no effect on cell viability
[4]; GB16, GB7, GB42 and BT147, 24 hr treatment (FIG. 13B)
  cell viability of patient-derived glioma lines: no effect on cell viability
